Data: patent US11964970B1, “7-(4-((5-(3-bromobenzylideneamino)-2-thioxo-1,3,4-thiadiazol-3(2H)-yl)methyl)piperazin-1-yl)-1-cyclopropyl-6-fluoro-4-oxo-1,4-dihydroquinoline-3-carboxylic acid as an anti-inflammatory and anticancer compound” (KING FAISAL UNIVERSITY, priority 2023, dated 2024)

Legend:
Bovine Serum Albumin = Bovine Serum Albumin (Bos taurus, UniProt P02769); test: Bovine Serum Albumin Assay (BSA), inhibition of protein denaturation; format: biochemical; conditions: BSA 0.4% w/v, pH 6.4, 72° C. for 10 minutes, 20-100 μg/mL, turbidity at 660 nm
Method: In vitro-inflammatory activities of the tested samples were determined using a modified method of the BSA assay reported by Williams et al. BSA solution (0.4%, w/v) was prepared in Tris Buffered Saline. The pH was adjusted to 6.4 with glacial acetic acid. Different dilutions of 20, 40, 60, 80, and 100 μg/mL of the stock solutions were added to test tubes containing 1 mL of 0.4%, w/v BSA buffer solution. Both negative (solvent) and positive (aspirin) controls were assayed in a similar manner. The solutions were then heated in a water bath at 72° C. for 10 minutes and cooled for 20 minutes under laboratory conditions. The turbidity of the solutions (level of protein precipitation) was measured at 660 nm in Spectrophotometer (V-770 UV-Visible/NIR Spectrophotometer).
The percentage inhibition of precipitation (protein denaturation) was determined relative to the negative control using the following equation:
[formula] % Anti-Denaturation Activity=% Inhibition of Protein Denaturation=% Anti-inflammatory Activity

[1] = tested on: human osteosarcoma cells (MG-63); test: Assessment of cytotoxicity by SRB assay, MG-63; format: cell-based; conditions: osteosarcoma (MG-63) cells, 72 h, 0.01 μM to 100 μM
Method: (§1) The human prostate cancer cells (PC3) and human osteosarcoma cells (MG-63) were obtained from Nawah Scientific Inc. (Mokatam, Cairo, Egypt) and cultured in DMEM (Dulbecco's modified eagle's medium), Gibco, USA, supplemented with fetal bovine serum (FBS) at a concentration of 10% and 100 U/mL of penicillin and streptomycin (PS). The Cells were incubated at 37° C. in a humidified environment that contained 5% CO2.
(§2) Cells were seeded in 96-well plates as aliquots of 100 μL cell suspension and incubated in a complete media for 24 h. afterward, cells were treated with N′-(1-naphthoyloxy)-2-(benzo[d]thiazol-2-yl)acetimidamide at diverse concentrations ranging from 0.01 μM to 100 μM for 72 h. Then, cells were fixed at 4° C. for one hour with 150 μL of 10% trichloroacetic acid (TCA). After washing the cells five times with distilled water, 70 μL of sulforhodamine (SRB) solution (0.4% w/v) was added and incubated for 10 min at room temperature in a dark place. […] Then, 150 μL of Tris pH 10.5 (10 mM) was added, and the absorbance was measured at 540 nm using a BMG LABTECH®-FLUOstar Omega microplate reader (Ortenberg, Germany). Half maximal inhibitory concentrations (IC50) values were calculated for each experiment using GraphPad Prism 6 software. […]
(§3) The inhibition was calculated using the following equation: Inhibition %=100−Average Viability

[2] = tested on: human prostate cancer cells (PC3); test: Assessment of cytotoxicity by SRB assay, PC3; format: cell-based; conditions: androgen-independent metastatic human prostate cancer cells (PC3), 72 h, 0.01 μM to 100 μM
Method: as §1, §2, §3

Bovine Serum Albumin, sequence (P02769 25-607): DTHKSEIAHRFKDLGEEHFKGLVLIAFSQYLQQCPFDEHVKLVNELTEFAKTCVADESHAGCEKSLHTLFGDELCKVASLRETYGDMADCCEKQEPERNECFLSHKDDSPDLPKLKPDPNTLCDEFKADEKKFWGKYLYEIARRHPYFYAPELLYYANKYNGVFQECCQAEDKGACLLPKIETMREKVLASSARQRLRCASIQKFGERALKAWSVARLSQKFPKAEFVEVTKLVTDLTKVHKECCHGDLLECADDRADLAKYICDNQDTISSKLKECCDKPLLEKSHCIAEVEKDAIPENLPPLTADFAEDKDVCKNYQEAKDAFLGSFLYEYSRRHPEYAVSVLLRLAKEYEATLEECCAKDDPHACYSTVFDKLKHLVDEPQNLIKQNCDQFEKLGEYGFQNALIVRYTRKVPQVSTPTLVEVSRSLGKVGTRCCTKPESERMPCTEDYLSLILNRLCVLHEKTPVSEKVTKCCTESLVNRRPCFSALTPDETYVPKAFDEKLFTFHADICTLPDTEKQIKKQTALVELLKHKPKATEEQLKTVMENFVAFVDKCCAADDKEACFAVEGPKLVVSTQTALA

- in vitro anti-inflammatory activity (inhibition of protein denaturation) (Bovine Serum Albumin): considerable anti-inflammatory effect
- melting point: 251 to 253 °C
SMILES: O=C(O)c1cn(C2CC2)c2cc(N3CCN(Cn4nc(/N=C/c5cccc(Br)c5)sc4=S)CC3)c(F)cc2c1=O [7-(4-((5-(3-bromobenzylideneamino)-2-thioxo-1,3,4-thiadiazol-3(2H)-yl)methyl)piperazin-1-yl)-1-cyclopropyl-6-fluoro-4-oxo-1,4-dihydroquinoline-3-carboxylic acid]
- antiproliferative activity against MG-63 cells [1]: excellent antiproliferative activities
- antiproliferative activity against PC3 cells [2]: excellent antiproliferative activities
